Test results: ChEMBL document CHEMBL6103672, “Discovery of HMPL-306 (Ranosidenib), a New Potent and Selective Dual Inhibitor of Mutant IDH1 and 2 in Clinical Development for Cancer Treatment” (ACS Med Chem Lett, 2025)

Key:
[1] = target: Isocitrate dehydrogenase [NADP], mitochondrial (Homo sapiens, UniProt P48735, R140Q); experiment: Inhibition of IDH2 R140Q mutant (unknown origin) using alpha-ketoglutarate as substrate preincubated with compound for 16 hrs followed by substrate addition and measured after 1 hr in presence of NADPH by fluorescence based analysis
[2] = Inhibition of IDH2 R140Q mutant in human U-87 MG cells incubated for 72 hrs by measuring 2-HG production by fluorescence based analysis; format: functional, cell-based, U-87MG ATCC
[3] = Inhibition of IDH1 R132H mutant in human U-87 MG cells incubated for 72 hrs by measuring 2-HG production by fluorescence based analysis; format: functional, cell-based, U-87MG ATCC
[4] = Apparent permeability across apical to basolateral side in human Caco-2 cells at 10 uM incubated for 1 hrs by LC-MS/MS analysis
[5] = Apparent permeability across basolateral to apical side in human Caco-2 cells at 10 uM incubated for 1 hrs by LC-MS/MS analysis
[6] = Metabolic stability in male SD rat liver microsomes assessed as parent compound remaining at 1 uM measured after 30 mins in presence of NADPH by LC-MS analysis; format: ADME, Microsome; settings: Sprague-Dawley, read-out: Stability
[7] = Metabolic stability in male ICR mouse liver microsomes assessed as parent compound remaining at 1 uM measured after 30 mins in presence of NADPH by LC-MS analysis; format: ADME, Microsome; settings: read-out: Stability

Sequence of Isocitrate dehydrogenase [NADP], mitochondrial (P48735 40-452 R140Q limits assumed): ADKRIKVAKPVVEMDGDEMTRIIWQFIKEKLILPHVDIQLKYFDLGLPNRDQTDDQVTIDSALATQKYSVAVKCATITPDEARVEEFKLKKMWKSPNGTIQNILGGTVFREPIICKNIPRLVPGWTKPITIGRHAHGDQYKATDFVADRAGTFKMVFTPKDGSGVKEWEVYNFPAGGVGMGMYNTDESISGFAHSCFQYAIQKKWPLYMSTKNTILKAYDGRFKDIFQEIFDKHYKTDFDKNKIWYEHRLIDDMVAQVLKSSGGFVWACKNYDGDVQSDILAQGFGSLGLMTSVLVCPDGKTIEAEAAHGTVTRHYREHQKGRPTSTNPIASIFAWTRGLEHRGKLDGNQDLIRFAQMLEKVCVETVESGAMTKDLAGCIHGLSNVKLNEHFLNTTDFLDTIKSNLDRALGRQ

SMILES	IC50 [1] [nM]	IC50 ([2]; Homo sapiens, U-87 MG, 72 h) [nM]	further results
COC1C=C(c2nc(N[C@H](C)C(F)(F)F)nc(N[C@H](C)C(F)(F)F)n2)CCC1 (stereo partly specified)	1030	2390	
CC(C)Nc1nc(N[C@H](C)C(F)(F)F)nc(C2=C[C@@H](O)CCC2)n1	16	67	IC50 ([3]; Homo sapiens, U-87 MG, 72 h): 372 nM; Papp A→B at 1 h, 10 µM [4]: 55.4 ×10⁻⁶ cm/s; Papp B→A at 1 h, 10 µM [5]: 34.1 ×10⁻⁶ cm/s; remaining at 0.5 h, 1 µM [6]: 65%; remaining at 0.5 h, 1 µM [7]: 48.1%
C=C(C)c1nc(NC(C)C)nc(N[C@H](C)C(F)(F)F)n1	710	> 10000	
CNC1C=C(c2nc(N[C@H](C)C(F)(F)F)nc(N[C@H](C)C(F)(F)F)n2)CCC1 (stereo partly specified)	> 3000		
CC(C)Nc1nc(N[C@H](C)C(F)(F)F)nc(C2=CCCC2)n1	83	1420	
CC(C)Nc1nc(N[C@H](C)C(F)(F)F)nc(C2=CCCCC2)n1	21	413	Papp A→B at 1 h, 10 µM [4]: 0.9 ×10⁻⁶ cm/s; Papp B→A at 1 h, 10 µM [5]: 3.3 ×10⁻⁶ cm/s; remaining at 0.5 h, 1 µM [6]: 13.6%; remaining at 0.5 h, 1 µM [7]: 12.5%
CC(C)Nc1nc(N[C@H](C)C(F)(F)F)nc(C2=CC(F)(F)CCC2)n1	23	504	Papp A→B at 1 h, 10 µM [4]: 2.2 ×10⁻⁶ cm/s; Papp B→A at 1 h, 10 µM [5]: 4 ×10⁻⁶ cm/s
CC(C)Nc1nc(N[C@H](C)C(F)(F)F)nc(C2=C[C@H](O)CCC2)n1	794	999	
CC(C)Nc1nc(N[C@H](C)C(F)(F)F)nc(C2(c3ccccc3)CC2)n1	253		
CC(C)Nc1nc(N[C@H](C)C(F)(F)F)nc(C2=CCOCC2)n1	2340		
CC(C)Nc1nc(N[C@H](C)C(F)(F)F)nc(N2CCCCC2)n1	> 3000		
CC(C)Nc1nc(N[C@H](C)C(F)(F)F)nc(C2=CCN(C)CC2)n1	> 3000		
C[C@H](Nc1nc(N[C@H](C)C(F)(F)F)nc(C2=C(F)C(O)C(F)(F)CC2)n1)C(F)(F)F (stereo partly specified)	166	156	IC50 ([3]; Homo sapiens, U-87 MG, 72 h): 1030 nM
C[C@@H](Nc1nc(N[C@H](C)C(F)(F)F)nc(C2=C(F)[C@H](O)CCC2)n1)C(F)(F)F		1020	IC50 ([3]; Homo sapiens, U-87 MG, 72 h): 3260 nM; Papp A→B at 1 h, 10 µM [4]: 60 ×10⁻⁶ cm/s; Papp B→A at 1 h, 10 µM [5]: 26 ×10⁻⁶ cm/s
C[C@@H](Nc1nc(NCC(C)(C)O)nc(C2=CC(O)CCC2)n1)C(F)(F)F (mixture of isomers)	1200	2800	
CC(C)Nc1nc(N[C@H](C)C(F)(F)F)nc(C2=CCCC(F)C2)n1 (mixture of isomers)	120		
C[C@@H](Nc1nc(NC2CCCCC2)nc(C2=CC(O)CCC2)n1)C(F)(F)F (mixture of isomers)	43	296	
C[C@@H](Nc1nc(N[C@H](C)C(F)(F)F)nc(C2=C(F)C(O)C3(CC2)CC3)n1)C(F)(F)F (mixture of isomers)	222	707	IC50 ([3]; Homo sapiens, U-87 MG, 72 h): 3230 nM
C[C@@H](Nc1nc(N[C@H](C)C(F)(F)F)nc(C2=C(F)C(O)C(F)(F)CC2)n1)C(F)(F)F (mixture of isomers)	28		IC50 ([2]; u-87mg atcc): 94 nM; IC50 ([3]; u-87mg atcc): 210 nM; Papp A→B at 1 h, 10 µM [4]: 50.4 ×10⁻⁶ cm/s; Papp B→A at 1 h, 10 µM [5]: 25.1 ×10⁻⁶ cm/s; remaining at 0.5 h, 1 µM [6]: 102%; remaining at 0.5 h, 1 µM [7]: 95.2%
CC(C)Nc1nc(N[C@H](C)C(F)(F)F)nc(C2=CCCC(O)C2)n1 (mixture of isomers)	1780		

SMILES	IC50 [1] [nM]	IC50 ([2]; Homo sapiens, U-87 MG, 72 h) [nM]	further results
C[C@@H](Nc1nc(NC2CC2)nc(C2=CC(O)CCC2)n1)C(F)(F)F (mixture of isomers)	257	171	
C[C@@H](Nc1nc(NC(C)(C)C)nc(C2=CC(O)CCC2)n1)C(F)(F)F (mixture of isomers)	111	319	
CC(C)Nc1nc(N[C@H](C)C(F)(F)F)nc(C2=CC(O)CCC2)n1 (mixture of isomers)	41	137	IC50 ([3]; Homo sapiens, U-87 MG, 72 h): 658 nM; Papp A→B at 1 h, 10 µM [4]: 53.3 ×10⁻⁶ cm/s; Papp B→A at 1 h, 10 µM [5]: 34.6 ×10⁻⁶ cm/s; remaining at 0.5 h, 1 µM [6]: 74.1%; remaining at 0.5 h, 1 µM [7]: 44.1%
C[C@@H](Nc1nc(N[C@H](C)C(F)(F)F)nc(C2=CC(O)CCC2)n1)C(F)(F)F (mixture of isomers)	35	86	IC50 ([3]; Homo sapiens, U-87 MG, 72 h): 434 nM; Papp A→B at 1 h, 10 µM [4]: 44.9 ×10⁻⁶ cm/s; Papp B→A at 1 h, 10 µM [5]: 28.6 ×10⁻⁶ cm/s; remaining at 0.5 h, 1 µM [6]: 79.8%; remaining at 0.5 h, 1 µM [7]: 58.2%
CC(C)Nc1nc(N[C@H](C)C(F)(F)F)nc(C2=CC(O)CC2)n1 (mixture of isomers)	85	1670	
C[C@@H](Nc1nc(N[C@H](C)C(F)(F)F)nc(C2=C(F)C(O)CCC2)n1)C(F)(F)F (mixture of isomers)	54	137	IC50 ([3]; Homo sapiens, U-87 MG, 72 h): 365 nM; Papp A→B at 1 h, 10 µM [4]: 68.6 ×10⁻⁶ cm/s; Papp B→A at 1 h, 10 µM [5]: 15.5 ×10⁻⁶ cm/s; remaining at 0.5 h, 1 µM [6]: 99%; remaining at 0.5 h, 1 µM [7]: 83.8%
CC(C)Nc1nc(N[C@H](C)C(F)(F)F)nc(C2=CC(F)CCC2)n1 (mixture of isomers)	43	181	Papp A→B at 1 h, 10 µM [4]: 5.1 ×10⁻⁶ cm/s; Papp B→A at 1 h, 10 µM [5]: 5.2 ×10⁻⁶ cm/s; remaining at 0.5 h, 1 µM [6]: 25.1%; remaining at 0.5 h, 1 µM [7]: 16.8%
CC(C)Nc1nc(N[C@H](C)C(F)(F)F)nc(C2=CCC(F)CC2)n1 (mixture of isomers)	162		
CC(C)Nc1nc(N[C@H](C)C(F)(F)F)nc(C(C)c2ccccc2)n1 (mixture of isomers)	337		
CC(C)Nc1nc(N[C@H](C)C(F)(F)F)nc(C2=CCC(O)CC2)n1 (mixture of isomers)	> 3000		
CC(C)C(=O)Nc1nc(N[C@H](C)C(F)(F)F)nc(C2=CC(O)CCC2)n1 (mixture of isomers)	262	1540	
CC(C)CNc1nc(N[C@H](C)C(F)(F)F)nc(C2=CC(O)CCC2)n1 (mixture of isomers)	21	100	IC50 ([3]; Homo sapiens, U-87 MG, 72 h): 2470 nM
CCCNc1nc(N[C@H](C)C(F)(F)F)nc(C2=CC(O)CCC2)n1 (mixture of isomers)	35	174	
C[C@H](Nc1nc(N[C@@H](C)C(F)(F)F)nc(C2=C(F)C(O)C(F)(F)CC2)n1)C(F)(F)F (mixture of isomers)	309	174	IC50 ([3]; Homo sapiens, U-87 MG, 72 h): 1320 nM
C[C@@H](Nc1nc(NC2CCCC2)nc(C2=CC(O)CCC2)n1)C(F)(F)F (mixture of isomers)	33	67	IC50 ([3]; Homo sapiens, U-87 MG, 72 h): 733 nM; Papp A→B at 1 h, 10 µM [4]: 30.9 ×10⁻⁶ cm/s; Papp B→A at 1 h, 10 µM [5]: 13.6 ×10⁻⁶ cm/s
C[C@@H](Nc1nc(NC2CCC2)nc(C2=CC(O)CCC2)n1)C(F)(F)F (mixture of isomers)	39	92	Papp A→B at 1 h, 10 µM [4]: 41.4 ×10⁻⁶ cm/s; Papp B→A at 1 h, 10 µM [5]: 27.5 ×10⁻⁶ cm/s; remaining at 0.5 h, 1 µM [6]: 34%; remaining at 0.5 h, 1 µM [7]: 15.9%
CCNc1nc(N[C@H](C)C(F)(F)F)nc(C2=CC(O)CCC2)n1 (mixture of isomers)	68	336	
COCCNc1nc(N[C@H](C)C(F)(F)F)nc(C2=CC(O)CCC2)n1 (mixture of isomers)	> 3000		
C[C@@H](Nc1nc(N[C@H](C)C(F)(F)F)nc(C2=C(F)C(O)C(F)(F)CC2)n1)C(F)(F)F (stereo in doubt; 42)	145		IC50 ([2]; u-87mg atcc): 845 nM; IC50 ([3]; u-87mg atcc): 1890 nM
